# Literature values in US20020156056A1, “Oral fast-dissolving compositions for dopamine agonists” (priority 1997, published 2002).
# Columns and labels:
# [1] = in vivo
Structure (SMILES),Adverse effects of intranasal administration (intranasal),"Adverse findings in long-term studies of oral tablets (oral tablets, studies stopped after 7-10 days)","Adverse effects of sub-lingual tablets (sub-lingual tablets, prolonged use)",Share of the drug converted to dopamine in peripheral tissues [1],Share of the drug that enters the brain [1]
"CN1CCc2cccc3c2C1Cc1ccc(O)c(O)c1-3 (centres unmarked) [apomorphine, 5,6,6a,7-tetrahydro-6-methyl-4H-dibenzo[de,g]quinoline-10,11-diol]","transient nasal blockage, burning sensation and swollen nose and lips",unexplained rises in blood urea nitrogen,severe stomatitis on prolonged use with buccal mucosal ulceration in half the patients treated,–,–
N[C@@H](Cc1ccc(O)c(O)c1)C(=O)O [levodopa],–,–,–,about 95%,less than 1%
